What is called Kd is the equilibrium constant for the complex coming apart. Usually ΔTm stands for the change in melting temperature against a reference sample. A word on the IC50: it is the concentration that inhibits the measured activity by half. A lower IC50 goes with higher potency.

Active and inactive are the calls of the source. The calls are words filed in the database; no cut-off is given here.

In test [1] the target is T1, Bromodomain-containing protein 4 (Homo sapiens, UniProt O60885). Description: Binding affinity to recombinant human N-terminal hexaHis-tagged BRD4 expressed in Escherichia coli BL21 (DE3) cells by qPCR assay. A general note: In qPCR the cycle at which signal appears reflects the starting amount.
In test [2] the target is T1, Bromodomain-containing protein 4. Description: Binding affinity to recombinant human N-terminal hexaHis-tagged BRD4 expressed in Escherichia coli BL21 (DE3) cells by MST assay.
The target of test [3] is T2, Bromodomain testis-specific protein (Homo sapiens, UniProt Q58F21). Put plainly: Binding affinity to recombinant human N-terminal hexaHis-tagged BRDT expressed in Escherichia coli BL21 (DE3) cells by qPCR assay.
The target of test [4] is T2, Bromodomain testis-specific protein. Put plainly: Binding affinity to recombinant human N-terminal hexaHis-tagged BRDT expressed in Escherichia coli BL21 (DE3) cells by ITC analysis. Background: ITC needs no label: the signal is the heat of the interaction.
The target is the same in test [5].
Description: Binding affinity to recombinant human N-terminal hexaHis-tagged BRDT expressed in Escherichia coli BL21 (DE3) cells assessed as change in melting temperature by DSF assay
Test [6] has the same target. Put plainly: Binding affinity to recombinant human N-terminal hexaHis-tagged BRDT expressed in Escherichia coli BL21 (DE3) cells by MST assay.
In the next test the test system is HEK-293T. Description: Inhibition of cell growth in HEK293T cells incubated for 72 hrs by CellTiter-blue reagent based assay. It is filed as functional. The settings on record: Homo sapiens. A general note: Alamar Blue is a resazurin reagent that responds to reducing activity.
Test [7] deals with T1, Bromodomain-containing protein 4. Put plainly: Binding affinity to recombinant human N-terminal hexaHis-tagged BRD4 expressed in Escherichia coli BL21 (DE3) cells by ITC analysis.
For test [8] the target is unchanged.
Description: Binding affinity to recombinant human N-terminal hexaHis-tagged BRD4 expressed in Escherichia coli BL21 (DE3) cells assessed as change in melting temperature by DSF assay
The subject of another test is MM1.S. Description: Inhibition of cell growth in human MM1.S cells incubated for 72 hrs by CellTiter-blue reagent based assay. It is filed as functional.
Test [9] has as its target Serine/threonine-protein kinase PLK1 (Homo sapiens) (UniProt P53350). The settings on record: MM1.S, dose 30-100 nM, time 6.0 hrs.

Serine/threonine-protein kinase PLK1 (Homo sapiens), sequence (P53350 whole entry): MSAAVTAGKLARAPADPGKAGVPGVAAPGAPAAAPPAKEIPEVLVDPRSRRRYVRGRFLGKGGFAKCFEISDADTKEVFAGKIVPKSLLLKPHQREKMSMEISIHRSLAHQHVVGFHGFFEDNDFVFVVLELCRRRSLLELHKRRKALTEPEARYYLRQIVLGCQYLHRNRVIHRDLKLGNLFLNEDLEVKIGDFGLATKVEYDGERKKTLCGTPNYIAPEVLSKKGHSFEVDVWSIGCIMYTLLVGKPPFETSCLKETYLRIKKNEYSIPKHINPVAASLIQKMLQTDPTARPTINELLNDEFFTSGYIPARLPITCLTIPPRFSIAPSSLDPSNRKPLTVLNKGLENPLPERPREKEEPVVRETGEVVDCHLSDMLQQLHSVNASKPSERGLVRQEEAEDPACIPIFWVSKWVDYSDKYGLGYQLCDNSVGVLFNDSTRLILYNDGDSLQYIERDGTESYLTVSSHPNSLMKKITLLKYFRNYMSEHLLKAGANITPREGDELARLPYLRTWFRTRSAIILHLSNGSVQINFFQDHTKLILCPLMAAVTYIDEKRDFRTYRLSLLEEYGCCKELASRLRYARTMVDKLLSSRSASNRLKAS

In the case of `CCOc1cc(N2CCC(O)CC2)ccc1Nc1ncc2c(n1)N(C)c1ccccc1C(=O)N2C`, the Kd worked out at 205 nM in [1]; 800 nM in test [2]; 675 nM in test [3]; 4200 nM in test [4]; 3500 nM in test [6]; 735 nM in test [7]. The ΔTm in test [5] came to 2.9 °C. The IC50 in the test on HEK-293T was more than 10000 nM.

With `Cc1cnc(Nc2ccc(C(=O)NC3CCN(C)CC3)c(F)c2)nc1Nc1ccc(Cl)c(NS(=O)(=O)C(C)(C)C)c1`, the Kd in test [1] was 12 nM; in [4], 59 nM; in test [7], 54 nM. In addition, the ΔTm in test [5] worked out at 11.9 °C; in test [8], 13.5 °C. Moreover, the IC50 worked out at 140 nM in the test with HEK-293T and 26 nM in the test with MM1.S.

As for `CCOc1cc(C(=O)N2CCC(N3CCN(C)CC3)CC2)ccc1Nc1ncc2c(n1)N(C1CCCC1)c1ccccc1C(=O)N2C`, the Kd was determined as 69 nM in test [1]; 205 nM in test [2]; 500 nM in test [3]; 2100 nM in test [4]; 1600 nM in [6]; 213 nM in [7]. The values for the ΔTm in [5] and in test [8] were 2.3 °C and 7.3 °C, respectively. Further, the IC50 in the test with HEK-293T is more than 10000 nM; in the test with MM1.S, 280 nM.

Turning to `CC[C@@H]1C(=O)N(C)c2cnc(Nc3ccc(C(=O)N[C@H]4CC[C@H](N5CCN(CC6CC6)CC5)CC4)cc3OC)nc2N1C(C)C` [VOLASERTIB], the Kd in [1] was found to be 77 nM; in test [2], 169 nM; in test [3] it was 113 nM; in test [4], 1700 nM; in [6] it was 1030 nM; in test [7], 317 nM. The ΔTm in test [5] was determined as 5 °C. In addition, the IC50 in the test on HEK-293T was 1.1 nM; in the test on MM1.S, 4.5 nM. Further, the inhibition result in test [9] was “Active”.

As for `COc1cc(C(=O)N2CCC(N3CCN(C)CC3)CC2)ccc1Nc1ncc2c(n1)N(C)c1ccccc1C(=O)N2C`, the ΔTm in [5] stood at 3.8 °C. Also, the IC50 is 2800 nM with HEK-293T and 530 nM in the test on MM1.S. Moreover, the inhibition entry in test [9] was “inactive”.

With `C[C@@H](Oc1cc(-n2cnc3ccc(CN4CCN(C)CC4)cc32)sc1C(N)=O)c1ccccc1C(F)(F)F`, the inhibition entry in test [9] is “Active”.

Turning to `Cc1sc2c(c1C)C(c1ccc(Cl)cc1)=N[C@@H](CC(=O)OC(C)(C)C)c1nnc(C)n1-2`, the inhibition result in [9] was “inactive”. Further, the IC50 in the test on MM1.S came out at 33 nM.
